Test results from US20230174468A1, “SULFATED PILLARARENES, METHODS OF MAKING SAME, AND USES THEREOF” (priority 2007, published 2023).
Like-named read-outs stand apart in the source and are kept apart here.

What was measured:
[1] = M2.cis complex, previous work; cited from earlier work
[2] = TA1537, +S9, positive control compounds
[3] = TA1537, −S9, positive control compounds
[4] = TA98, +S9, positive control compounds
[5] = TA98, −S9, positive control compounds
[6] = TA1535, +S9, positive control compounds
[7] = TA1535, −S9, positive control compounds
[8] = TA100, +S9, positive control compounds
[9] = TA100, −S9, positive control compounds

Row | Structure (SMILES) | number of positive wells (TA1537; [2]) | significance of positive wells vs control (Fisher's exact test) (TA1537; [2]) | number of positive wells (TA1537; [3]) | significance of positive wells vs control (Fisher's exact test) (TA1537; [3]) | number of positive wells (TA98; [4]) | significance of positive wells vs control (Fisher's exact test) (TA98; [4]) | number of positive wells (TA98; [5]) | significance of positive wells vs control (Fisher's exact test) (TA98; [5]) | number of positive wells (TA1535; [6]) | significance of positive wells vs control (Fisher's exact test) (TA1535; [6]) | number of positive wells (TA1535; [7]) | significance of positive wells vs control (Fisher's exact test) (TA1535; [7]) | number of positive wells (TA100; [8]) | significance of positive wells vs control (Fisher's exact test) (TA100; [8]) | number of positive wells (TA100; [9]) | significance of positive wells vs control (Fisher's exact test) (TA100; [9]) | Ka [1]
1 | CN(N=O)C(=O)N[C@H]1C(O)O[C@H](CO)[C@@H](O)[C@@H]1O (mixture of isomers) [Streptozotocin] | 1/48 | − (p >0.05 (negative, −)) | 1/48 | − (p >0.05 (negative, −)) | 0/48 | − (p >0.05 (negative, −)) | 0/48 | − (p >0.05 (negative, −)) | 24/48 | +++ (p<0.001 (very strong positive, +++)) | 16/48 | +++ (p<0.001 (very strong positive, +++)) | 7/48 | − (p >0.05 (negative, −)) | 5/48 | + (0.01<p<0.05 (weak positive, +)) | 
2 | Nc1ccc2cc3ccccc3cc2c1 [Host 2-AA, 2-aminoanthracene] | 6/48 | + (0.01<p<0.05 (weak positive, +)) | 0/48 | − (p >0.05 (negative, −)) | 13/48 | +++ (p<0.001 (very strong positive, +++)) | 0/48 | − (p >0.05 (negative, −)) | 9/48 | ++ (0.001<p <0.01 (strong positive, ++)) | 0/48 | − (p >0.05 (negative, −)) | 11/48 | + (0.01<p<0.05 (weak positive, +)) | 0/48 | − (p >0.05 (negative, −)) | 
3 | Nc1c2ccccc2nc2ccccc12 [Host 9-AA, 9-aminoacridine] | 24/48 | +++ (p<0.001 (very strong positive, +++)) | 24/48 | +++ (p<0.001 (very strong positive, +++)) | 0/48 | − (p >0.05 (negative, −)) | 0/48 | − (p >0.05 (negative, −)) | 0/48 | − (p >0.05 (negative, −)) | 0/48 | − (p >0.05 (negative, −)) | 2/48 | − (p >0.05 (negative, −)) | 0/48 | − (p >0.05 (negative, −)) | 
4 | C[C@]12N3Cc4c(c(OCCCS(=O)(=O)[O-])c5ccccc5c4OCCCS(=O)(=O)[O-])CN1C(=O)N1CN4C(=O)N5CN6C(=O)N7CN8C(=O)N9Cc%10c(c(OCCCS(=O)(=O)[O-])c%11ccccc%11c%10OCCCS(=O)(=O)[O-])CN%10C(=O)N(CN%11C(=O)N(CN%12C(=O)N(CN(C3=O)[C@]12C)[C@@H]4[C@H]%125)[C@@H]6[C@H]%117)[C@]8(C)[C@@]9%10C.[Na+].[Na+].[Na+].[Na+] [Host M2] |  |  |  |  |  |  |  |  |  |  |  |  |  |  |  |  | 4.8e+06 M⁻¹
5 | O=c1c(O)c(-c2ccc(O)c(O)c2)oc2cc(O)cc(O)c12 [Quercetin] | 5/48 | + (0.01<p<0.05 (weak positive, +)) | 1/48 | − (p >0.05 (negative, −)) | 10/48 | +++ (p<0.001 (very strong positive, +++)) | 5/48 | + (0.01<p<0.05 (weak positive, +)) | 0/48 | − (p >0.05 (negative, −)) | 1/48 | − (p >0.05 (negative, −)) | 5/48 | − (p >0.05 (negative, −)) | 0/48 | − (p >0.05 (negative, −)) | 
